Assay results published in patent US8933106B2, “2-(4-substituted phenylamino) polysubstituted pyridine compounds as inhibitors of non-nucleoside HIV reverse transcriptase, preparation methods and uses thereof” (Institute of Pharmacology and Toxicology Academy of …, priority 2008, dated 2015).
≈ marks a conversion by molar mass, not a printed value.

Experiments:
[1] = Cytotoxicity test of the compound (MT-2 cells, XTT); assay type: cell-based; details: human, 4th day
Protocol: Please refer to the document (Jiang, S., et al. Antimicrob. Agents Chemother. 2004, 48, 4349-4359). In a 96-pore cell culture plate, 50 μl of different concentrations of compound solutions were respectively mixed with equal-volume of PBS, and incubated at 37° C. for 30 min, and then 100 μl MT-2 (or H9) cells (1×10^5/mL, RPIM 1640 culture medium containing 10% serum) was added, and mixed homogenously, followed by incubation at 37° C. overnight. On the second day, 150 μl of the supernatant was sucked out, and equal-volume of fresh culture medium was replenished, followed by further incubation at 37° C. for 3 days. On the 4th day, 50 μl of a XTT solution (1 mg/mL) containing PMS as freshly prepared was added. After 4 h, OD at 450 nm was tested. The 50% cytotoxicity concentration (CC50) of the compound was calculated using CalcuSyn software.

[2] = test system: HIV-1IIIB virus strain; test: Anti-HIV activity test (MT-2 cell model), p24 antigen ELISA; assay type: cell-based; details: MT-2 cells; for EC50: Human immunodeficiency virus 1, MT2, HIV-1IIIB, 4th day, p24 antigen; for SI(CC50/EC50): ratio of toxicity CC50 value to activity EC50 value
Protocol: Please refer to the document (Jiang, S., et al. Antimicrob. Agents Chemother. 2004, 48, 4349-4359). In a 96-pore cell culture plate, 50 μl of different concentrations of compound solutions were respectively mixed with equal-volume of HIV-1IIIB virus strain (100 TCID50), and incubated at 37° C. for 30 min, and then 100 μl MT-2 cell (1×10^5/mL, RPIM 1640 culture medium containing 10% serum) was added, and mixed homogenously, followed by incubation at 37° C. overnight. On the second day, 150 μl of the supernatant was sucked out, and equal-volume of fresh culture medium was replenished, followed by further incubation at 37° C. for 3 days. On the 4th day, cytopathic effect (CPE) was recorded. Thereafter, 100 μl of culture supernatant was sucked out, virus particles were split using 5% Triton X-100, and p24 antigen therein was tested by using ELISA assay. Briefly, a ELISA plate was coated with HIVIG (2 μg/mL), and blocked with 1% fat-free milk, then a virus lysate was added therein, followed by incubation at 37° C. for 60 min. After fully washing the plate, anti-p24 monoclonal antibody-183-12H-5C, biotin-labeled goat antimouse antibody and […]-labeled horseradish peroxidase were added in sequence. Then, after developing with TMB, OD was tested at 450 nm. The 50% effective concentration (EC50) of the compound was calculated using CalcuSyn software.

Row | melting point [°C] | EC50 [2] [µg/mL] | SMILES | CC50 at 4 days [1] [µg/mL] | SI(CC50/EC50) [2]
1 | 234 to 236 | 15.9 (≈ 43.2 µM) | N#Cc1ccc(Nc2nc(Oc3c(F)cccc3F)ccc2[N+](=O)[O-])cc1 [Compound I-29, 2-(4-cyanophenylamino)-6-(2,6-difluorophenoxy)-3-nitropyridine] | 39.7 (≈ 108 µM) | 2
2 | 190 to 193 | 0.021 (≈ 0.0513 µM) | Cc1cc(Br)cc(C)c1Oc1ccc(N)c(Nc2ccc(C#N)cc2)n1 [Compound I-12, 3-amino-2-(4-cyanophenylamino)-6-(2,6-dimethyl-4-bromophenoxy)pyridine] | 5.44 (≈ 13.3 µM) | 259
3 | 223 to 226 | 0.045 (≈ 0.0832 µM) | N#CC=Cc1cc(Br)c(Oc2ccc([N+](=O)[O-])c(Nc3ccc(C#N)cc3)n2)c(Br)c1 [Compound I-30, 2-(4-cyanophenylamino)-6-(2,6-dibromo-4-cyanovinylphenoxy)-3-nitropyridine] | 24.8 (≈ 45.8 µM) | 551
4 | 209 to 213 | 0.253 (≈ 0.486 µM) | N#Cc1ccc(Nc2nc(Oc3c(Br)cc(CO)cc3Br)ccc2[N+](=O)[O-])cc1 [Compound I-28, 2-(4-cyanophenylamino)-6-(2,6-dibromo-4-hydroxymethylphenoxy)-3-nitropyridine] | 36.3 (≈ 69.8 µM) | 145
5 | 188 to 192 |  | Cc1cc(C#CC2CC2)cc(C)c1Oc1ccc([N+](=O)[O-])c(Nc2ccc(C#N)cc2)n1 [Compound I-20, 2-(4-cyanophenylamino)-6-(2,6-dimethyl-4-(cyclopropylethynyl)phenoxy)-3-nitropyridine] |  | 
6 |  | 0.005 (≈ 0.0122 µM) | Cc1cc(C=CC#N)cc(C)c1Oc1ccc([N+](=O)[O-])c(Nc2ccc(C#N)cc2)n1 [Compound I-5, 2-(4-cyanophenylamino)-6-(2,6-dimethyl-4-cyanovinylphenoxy)-3-nitropyridine] | 24.8 (≈ 60.2 µM) | 4,956
7 | 150 to 152 | 0.09 (≈ 0.243 µM) | C=CCc1cc(C)c(Oc2ccc(N)c(Nc3ccc(C#N)cc3)n2)c(C)c1 [Compound I-13, 3-amino-2-(4-cyanophenylamino)-6-(2,6-dimethyl-4-allylphenoxy)pyridine] | 2.13 (≈ 5.75 µM) | 24
8 | 250 to 252 |  | Cc1cc([N+](=O)[O-])cc(C)c1Oc1ccc([N+](=O)[O-])c(Nc2ccc(C#N)cc2)n1 |  | 
9 | 82 to 85 |  | Cc1cc(C#CC2CC2)cc(C)c1Oc1ccc(N)c(Nc2ccc(C#N)cc2)n1 [Compound I-21, 3-amino-2-(4-cyanophenylamino)-6-(2,6-dimethyl-4-(cyclopropylethynyl)phenoxy)pyridine] |  | 
10 | 188 to 191 | 0.179 (≈ 0.315 µM) | N#Cc1ccc(Nc2nc(Oc3c(Br)cc(Br)cc3Br)ccc2[N+](=O)[O-])cc1 [Compound I-26, 2-(4-cyanophenylamino)-6-(2,4,6-tribromophenoxy)-3-nitropyridine] | 27 (≈ 47.4 µM) | 151
11 |  | 0.118 (≈ 0.315 µM) | Cc1cc(C)c(Oc2ccc([N+](=O)[O-])c(Nc3ccc(C#N)cc3)n2)c(C)c1 [Compound I-3, 2-(4-cyanophenylamino)-6-(2,4,6-trimethylphenoxy)-3-nitropyridine] | 503 (≈ 1340 µM) | 4,264
12 | 79 to 82 | 0.15 (≈ 0.423 µM) | C#Cc1cc(C)c(Oc2ccc(N)c(Nc3ccc(C#N)cc3)n2)c(C)c1 [Compound I-23, 3-amino-2-(4-cyanophenylamino)-6-(2,6-dimethyl-4-ethynylphenoxy)pyridine] | 2.92 (≈ 8.24 µM) | 19
13 |  | 0.036 (≈ 0.0789 µM) | Cc1cc(I)cc(C)c1Oc1ccc(N)c(Nc2ccc(C#N)cc2)n1 [Compound I-25, 3-amino-2-(4-cyanophenylamino)-6-(2,6-dimethyl-4-iodophenoxy)pyridine] | 10.7 (≈ 23.5 µM) | 298
14 |  | 0.0042 (≈ 0.011 µM) | Cc1cc(C=CC#N)cc(C)c1Oc1ccc(N)c(Nc2ccc(C#N)cc2)n1 [Compound I-10, 3-amino-2-(4-cyanophenylamino)-6-(2,6-dimethyl-4-cyanovinylphenoxy)pyridine] | 27.9 (≈ 73.3 µM) | 6,656
15 | 218 to 220 | 0.152 (≈ 0.293 µM) | N#Cc1ccc(Nc2nc(Oc3c(Br)cc(C=O)cc3Br)ccc2[N+](=O)[O-])cc1 [Compound I-27, 2-(4-cyanophenylamino)-6-(2,6-dibromo-4-formylphenoxy)-3-nitropyridine] | 0.78 (≈ 1.51 µM) | 
16 |  | 0.109 (≈ 0.272 µM) | C=CCc1cc(C)c(Oc2ccc([N+](=O)[O-])c(Nc3ccc(C#N)cc3)n2)c(C)c1 [Compound I-9, 2-(4-cyanophenylamino)-6-(2,6-dimethyl-4-allylphenoxy)-3-nitropyridine] | > 100 | >917
17 | 162 to 165 | 1.18 (≈ 2.43 µM) | Cc1cc(I)cc(C)c1Oc1ccc([N+](=O)[O-])c(Nc2ccc(C#N)cc2)n1 [Compound I-16, 2-(4-cyanophenylamino)-6-(2,6-dimethyl-4-iodophenoxy)-3-nitropyridine] | 72.2 (≈ 148 µM) | 61
18 |  | 0.0005 (≈ 0.00141 µM) | Cc1cc(C#N)cc(C)c1Oc1ccc(N)c(Nc2ccc(C#N)cc2)n1 [Compound I-6, 3-amino-2-(4-cyanophenylamino)-6-(2,6-dimethyl-4-cyanophenoxy)pyridine] | 11.3 (≈ 31.7 µM) | 22,560
19 | 195 to 198 |  | Cc1cc(N)cc(C)c1Oc1ccc(N)c(Nc2ccc(C#N)cc2)n1 [Compound I-24, 3-amino-2-(4-cyanophenylamino)-6-(2,6-dimethyl-4-aminophenoxy)pyridine] |  | 
20 | 186 to 188 | 0.26 (≈ 0.676 µM) | C#Cc1cc(C)c(Oc2ccc([N+](=O)[O-])c(Nc3ccc(C#N)cc3)n2)c(C)c1 [Compound I-22, 2-(4-cyanophenylamino)-6-(2,6-dimethyl-4-ethynylphenoxy)-3-nitropyridine] | 66.7 (≈ 173 µM) | 256
21 | 114 to 116 |  | Cc1cc(C#CC(C)(C)O)cc(C)c1Oc1ccc([N+](=O)[O-])c(Nc2ccc(C#N)cc2)n1 [Compound I-18, 2-(4-cyanophenylamino)-6-(2,6-dimethyl-4-(3-methyl-3-hydroxy-1-butynyl)phenoxy)-3-nitropyridine] |  | 
22 |  | 0.075 (≈ 0.192 µM) | Cc1cc(CO)cc(C)c1Oc1ccc([N+](=O)[O-])c(Nc2ccc(C#N)cc2)n1 [Compound I-8, 2-(4-cyanophenylamino)-6-(2,6-dimethyl-4-hydroxymethylphenoxy)-3-nitropyridine] | 45.2 (≈ 116 µM) | 602
23 | 175 to 177 |  | Cc1cc(CNC2CC2)cc(C)c1Oc1ccc([N+](=O)[O-])c(Nc2ccc(C#N)cc2)n1 [Compound I-15, 2-(4-cyanophenylamino)-6-(2,6-dimethyl-4-(2-cyclopropylaminomethyl)phenoxy)-3-nitropyridine] |  | 

Row | SMILES | melting point [°C] | EC50 [2] [µg/mL] | CC50 at 4 days [1] [µg/mL] | SI(CC50/EC50) [2]
24 | Cc1cc(C(O)C[N+](=O)[O-])cc(C)c1Oc1ccc([N+](=O)[O-])c(Nc2ccc(C#N)cc2)n1 (stereo not shown) [Compound I-14, 2-(4-cyanophenylamino)-6-(2,6-dimethyl-4-(1-hydroxy-2-nitroethyl)phenoxy)-3-nitropyridine] | 230 to 234 | 0.77 (≈ 1.71 µM) | 12.2 (≈ 27 µM) | 16
